Molecules are shown by their SMILES. Where “and” joins values, the source holds several entries; their conditions need not be identical. Equal values may be shown once.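 In this assay, cells in 96-well plates receive the compound at five concentrations for 48 hours. Endpoints are linearly interpolated between the surrounding concentrations. Abbreviation: GI50, concentration required for 50% inhibition of growth. TGI denotes the concentration required for complete inhibition of growth.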 Where only a bound is given, the exact number is not on record here.

Among the test systems are ACHN renal; HCT-15 colon; M14 melanoma; SNB-19 CNS; SK-MEL-2 melanoma; MALME-3M melanoma; SK-MEL-28 melanoma; EKVX NSCLC; SF-268 CNS; LOX IMVI melanoma.
What all share (experiment): NCI anticancer screen, dose series, 48 h

On to `C=C(c1ccccc1)C1(O)CCCCC1N` (centres undefined), for which the TGI with ACHN renal, in the assay with HCT-15 colon, in the assay on M14 melanoma, in the assay on SNB-19 CNS, in the assay with SK-MEL-2 melanoma and in the assay with MALME-3M melanoma was above 100 µM throughout. The TGI in the assay with SK-MEL-28 melanoma, in the assay on EKVX NSCLC, in the assay with SF-268 CNS and with LOX IMVI melanoma was above 100 µM each time.
For `O=C(N/N=C/c1ccccc1O)N/N=C/c1ccccc1O`, the TGI with ACHN renal, in the assay with HCT-15 colon, in the assay on M14 melanoma, with SNB-19 CNS, in the assay with SK-MEL-2 melanoma and in the assay with MALME-3M melanoma was above 100 µM throughout. Further, the TGI in the assay on SK-MEL-28 melanoma, in the assay on EKVX NSCLC, with SF-268 CNS and with LOX IMVI melanoma was above 100 µM in each case.
As to `CCOC(=O)Oc1c(OC)cc(C(=O)c2ccc(OC)c(O)c2OC)cc1OC`, the GI50 is 1.95 µM in the assay on ACHN renal; 0.42 µM with HCT-15 colon; 0.319 µM in the assay on M14 melanoma; 0.821 µM in the assay with SNB-19 CNS; 1.79 µM with SK-MEL-2 melanoma; 0.686 µM with MALME-3M melanoma. Besides, the GI50 with SK-MEL-28 melanoma was 2.78 µM; in the assay with EKVX NSCLC it was 2.54 µM; in the assay with SF-268 CNS, 10.7 µM; with LOX IMVI melanoma, 0.557 µM. Further, the TGI in the assay on ACHN renal, in the assay on HCT-15 colon, in the assay on M14 melanoma, in the assay with SNB-19 CNS, with SK-MEL-2 melanoma and in the assay with MALME-3M melanoma was above 100 µM each time. In addition, the TGI in the assay with SK-MEL-28 melanoma, with EKVX NSCLC, in the assay on SF-268 CNS and with LOX IMVI melanoma was above 100 µM each time.
In the case of `COc1cc(/C=C/C(=O)/C=C/c2cc(OC)c3c(c2)OCO3)cc2c1OCO2`, the GI50 in the assay on ACHN renal is 7.25 µM; in the assay with HCT-15 colon, 4.42 µM; in the assay on M14 melanoma, 4.03 µM; in the assay on SNB-19 CNS, 10.3 µM; with SK-MEL-2 melanoma it was above 100 µM; in the assay with MALME-3M melanoma it was above 100 µM. The GI50 was 39 µM in the assay with SK-MEL-28 melanoma, above 100 µM in the assay with EKVX NSCLC, 5.47 µM with SF-268 CNS and 1.89 µM with LOX IMVI melanoma. The TGI in the assay with ACHN renal was above 100 µM; with HCT-15 colon it was above 100 µM; in the assay with M14 melanoma, 19.4 µM; with SNB-19 CNS, above 100 µM; with SK-MEL-2 melanoma, above 100 µM; in the assay with MALME-3M melanoma, above 100 µM. In addition, the TGI with SK-MEL-28 melanoma is above 100 µM; in the assay on EKVX NSCLC it was above 100 µM; in the assay on SF-268 CNS, above 100 µM; in the assay on LOX IMVI melanoma it was 4.35 µM.
On to `c1ccc(C2ONC3=NCCN32)cc1` (centres undefined), for which the GI50 in the assay on ACHN renal is 41.9 µM; in the assay on HCT-15 colon, 16.9 µM; in the assay with M14 melanoma it was above 100 µM; in the assay on SNB-19 CNS, above 100 µM; with SK-MEL-2 melanoma, above 100 µM; in the assay on MALME-3M melanoma it was 62.9 µM. Moreover, the GI50 in the assay on SK-MEL-28 melanoma was above 100 µM; in the assay with EKVX NSCLC, above 100 µM; with SF-268 CNS it was 54.3 µM; in the assay on LOX IMVI melanoma it was 11.3 µM. Besides, the TGI in the assay with ACHN renal, in the assay with HCT-15 colon, with M14 melanoma, in the assay with SNB-19 CNS, in the assay on SK-MEL-2 melanoma and in the assay on MALME-3M melanoma was above 100 µM in each case. The TGI in the assay with SK-MEL-28 melanoma, in the assay with EKVX NSCLC, with SF-268 CNS and in the assay with LOX IMVI melanoma was above 100 µM throughout.
Turning to `CC1CC(C)CC(C)C(O)/C(C#N)=C/C=C/CC(C2CCCC2C(=O)O)OC(=O)CC(O)C(C)C1` (centres undefined), the GI50 is 0.0326 µM with ACHN renal; 0.0229 µM in the assay on HCT-15 colon; 0.026 µM in the assay with M14 melanoma; 0.0232 µM in the assay on SNB-19 CNS; 0.00139 µM with SK-MEL-2 melanoma; 0.115 µM in the assay with MALME-3M melanoma. Besides, the GI50 in the assay with SK-MEL-28 melanoma was 0.0262 µM; in the assay on EKVX NSCLC, 0.0518 µM; in the assay on SF-268 CNS it was 0.0307 µM; with LOX IMVI melanoma, 0.0162 µM. For the same compound, the TGI in the assay on ACHN renal was 0.148 µM and 0.181 µM; in the assay with HCT-15 colon, 0.114 µM and 0.104 µM; in the assay on M14 melanoma, 0.0971 µM and 0.0576 µM; with SNB-19 CNS, 0.109 µM and 0.0359 µM; with SK-MEL-2 melanoma, 0.00545 µM; with MALME-3M melanoma it was 0.312 µM and 0.106 µM. Further, the TGI in the assay with SK-MEL-28 melanoma was 0.0847 µM and 0.0392 µM; in the assay on EKVX NSCLC, 0.384 µM and 0.465 µM; in the assay with SF-268 CNS, 0.311 µM and 0.117 µM; in the assay on LOX IMVI melanoma it was 0.0479 µM and 0.0213 µM.
Consider `C=C1CCC2C3(C)COC(C)(C)OC3CCC2(C)C1C/C=C1/C(=O)OCC1OC(C)=O` (centres undefined), for which the GI50 was 3.12 µM in the assay with ACHN renal; 1.61 µM with HCT-15 colon; 1.77 µM in the assay with M14 melanoma; 15.6 µM in the assay on SNB-19 CNS; 3.52 µM with SK-MEL-2 melanoma; 3.11 µM in the assay on MALME-3M melanoma. Further, the GI50 in the assay with SK-MEL-28 melanoma was 2.21 µM; in the assay with EKVX NSCLC, 9.5 µM; in the assay on SF-268 CNS, 5.83 µM; in the assay with LOX IMVI melanoma, 0.704 µM. The TGI came out at 10.5 µM with ACHN renal; 4.19 µM in the assay with HCT-15 colon; 3.78 µM with M14 melanoma; 29 µM in the assay on SNB-19 CNS; 15.6 µM in the assay on SK-MEL-2 melanoma; 10.1 µM in the assay on MALME-3M melanoma. Moreover, the TGI with SK-MEL-28 melanoma is 4.94 µM; with EKVX NSCLC, 24.4 µM; in the assay on SF-268 CNS, 17.6 µM; in the assay with LOX IMVI melanoma it was 2.46 µM.
As to `CCN1C(=O)N(CC)C2C1NN=c1s/c(=C\c3ccc(Cl)cc3Cl)c(=O)n12` (centres undefined), the GI50 was 0.0513 µM in the assay on ACHN renal; 0.035 µM in the assay with HCT-15 colon; 0.0304 µM in the assay on M14 melanoma; 0.0503 µM with SNB-19 CNS; 0.0592 µM with SK-MEL-2 melanoma; 0.0777 µM with MALME-3M melanoma. In addition, the GI50 with SK-MEL-28 melanoma was 2.48 µM; in the assay on EKVX NSCLC it was 0.0423 µM; in the assay on SF-268 CNS, 0.0485 µM; in the assay with LOX IMVI melanoma, 0.0329 µM. Besides, the TGI in the assay on ACHN renal was above 51.2 µM; in the assay with HCT-15 colon, above 100 µM; with SNB-19 CNS, above 100 µM; in the assay on SK-MEL-2 melanoma, above 60 µM; in the assay with MALME-3M melanoma, above 75 µM; in the assay on SK-MEL-28 melanoma it was above 100 µM. Further, the TGI is above 100 µM in the assay with EKVX NSCLC, above 67.5 µM with SF-268 CNS and above 35.1 µM in the assay with LOX IMVI melanoma.

Source of the values: PubChem BioAssay (NCI).
